# Test results reported in patent publication US9650400B2, “Voriconazole sodium phosphate hydrates and polymorphs thereof” (SHAANXI SYNTHETIC PHARMACEUTICAL CO., LTD., priority 2013, dated 2017).
# Where two headings read alike, the source gives them in different places.
# How the values were obtained:
# [1] = Pharmacokinetic experiments in rabbits (intravenous, equimolar); format: in vivo; conditions: rabbit
# Procedure: Two rabbits of same body weight were intravenously administered equimolar voriconazole sodium phosphate and voriconazole, respectively, and an equal volume of blood was drawn from the rabbits at different time intervals, and a metabolism status in body was determined.
# [2] = Hydroscopicity comparison (moisture absorption, 25° C. and 80% humidity, 24 hours); format: physicochemical
# [3] = format: physicochemical
# Procedure: Sample injection was carried out by using a sample prepared by allowing the sample in Example 17 to absorb moisture, and the results are shown in Table 5.
# [4] = system: Aspergillus fumigatus; experiment: Diffused aspergillosis in guinea pigs; format: in vivo
# Procedure: (§1) In all experiments, particular pathogen-free guinea pigs (body weight of 400-500 g) were used. A conduit was placed in the left jugular vein of the […] infected with Aspergillus fumigatus (4,000 CFU/g body weight) or Candida albicans (4,000 CFU/g body weight) via the lateral veins of penis of the animal or via the implanted conduit. One hour after infection, the animals were subject to an intravenous therapy (5 mg/kg/day). The mean survival time (MST) and the percent survival (% sur) were recorded for each group experimental animals (the number of each group of experimental animals is listed in column “N”) within respective number of days. The amounts of […] in deep tissues (such as liver, spleen, kidney, lung, or brain) were investigated in animals which died during the experiment and in animals which survived the experiment but were later sacrificed in respective groups. “% neg” in Table 1 represents the percent of deep tissues that were culture-negative after treatment.
# [5] = system: Candida albicans; experiment: Diffused candidiasis in guinea pigs; format: in vivo; conditions: intravenous 5 mg/kg/day
# Procedure: as §1
# [6] = Aspergillus fumigatus, intravenous 5 mg/kg/day
compound,measurement,setting,value
C[C@@H](c1ncncc1F)[C@](O)(Cn1cncn1)c1ccc(F)cc1F [voriconazole],"parent nucleus (voriconazole) in blood, peak area","[1]; in vivo, iv, 30 min",378.34 peak area
same,"parent nucleus (voriconazole) in blood, peak area","[1]; in vivo, iv, 60 min",321.69 peak area
same,"parent nucleus (voriconazole) in blood, peak area","[1]; in vivo, iv, 120 min",150.45 peak area
same,"parent nucleus (voriconazole) in blood, peak area","[1]; in vivo, iv, 150 min",78.35 peak area
same,"parent nucleus (voriconazole) in blood, peak area","[1]; in vivo, iv, 200 min",29.71 peak area
same,"parent nucleus (voriconazole) in blood, peak area","[1]; in vivo, iv, 250 min",0.234 peak area
Voriconazole phosphate anhydrate [reference compound],"Sample weight, 0 hour",[2],0.3938 g
same,"Sample weight, 24 hours",[2]; 24 hours,0.4627 g
same,hydroscopicity (in words),[2]; 24 hours,significant hydroscopicity
same,stability under highly humid conditions (in words),[3],extremely unstable
same,"Individual impurity, by weight",[3]; 0 hour,Individual impurity 0.07%
same,"Total impurity, by weight",[3]; 0 hour,Total impurity 0.10%
voriconazole sodium phosphate,metabolism in body (in words),[1]; intravenous,can be metabolized into voriconazole in body
same,"Prodrug in blood, peak area","[1]; intravenous, 30 min",235.92 peak area
same,"parent nucleus (voriconazole) in blood, peak area","[1]; intravenous, 30 min",0.324 peak area
same,"Prodrug in blood, peak area","[1]; intravenous, 60 min",143.51 peak area
same,"parent nucleus (voriconazole) in blood, peak area","[1]; intravenous, 60 min",86.42 peak area
same,"Prodrug in blood, peak area","[1]; intravenous, 120 min",98.59 peak area
same,"parent nucleus (voriconazole) in blood, peak area","[1]; intravenous, 120 min",158.32 peak area
same,"Prodrug in blood, peak area","[1]; intravenous, 150 min",2.045 peak area
same,"Prodrug in blood, peak area","[1]; intravenous, 200 min",0 peak area
same,"parent nucleus (voriconazole) in blood, peak area","[1]; intravenous, 200 min",130.38 peak area
same,"Prodrug in blood, peak area","[1]; intravenous, 250 min",0 peak area
same,"parent nucleus (voriconazole) in blood, peak area","[1]; intravenous, 250 min",69.23 peak area
same,potency against fungal infection (in words),"[4]; Aspergillus fumigatus or Candida albicans infection, conclusion from Table 7",very potent against fungal infection
voriconazole sodium phosphate hydrate,"Sample weight, 0 hour",[2],0.3318 g
same,"Sample weight, 24 hours",[2]; 24 hours,0.3441 g
same,"Weight increase by moisture absorption, by weight",[2]; 24 hours,3.6%
same,hydroscopicity (in words),[2]; 24 hours,mild hydroscopicity
same,MST (mean survival time),"[4]; Aspergillus fumigatus 4,000 CFU/g body weight, intravenous 5 mg/kg/day",6.2 days
same,% neg (percent of deep tissues culture-negative after treatment),[4]; [6],70%
same,% sur (percent survival),[4]; [6],66.4%
same,g (liver): CFU/g in culture-positive liver,[4]; [6],3.5 mean log 10 CFU/g
same,"Individual impurity, by weight",[3]; 0 hour,Individual impurity 0.06%
same,"Total impurity, by weight",[3]; 0 hour,Total impurity 0.09%
same,"Individual impurity, by weight",[3]; 24 hour moisture absorption,Individual impurity 0.08%
same,"Total impurity, by weight",[3]; 24 hour moisture absorption,Total impurity 0.13%
same,change in impurity after absorbing moisture (in words),[3]; 24 hours,minor change in impurity
same,MST (mean survival time),"[5]; Candida albicans 4,000 CFU/g body weight",9.5 days
same,% neg (percent of deep tissues culture-negative after treatment),[5]; Candida albicans,69%
same,% sur (percent survival),[5]; Candida albicans,76.9%
same,g (liver): CFU/g in culture-positive liver,[5]; Candida albicans,0 mean log 10 CFU/g
